From patent US11661403B2, “Oxadiazole compounds” (Vivace Therapeutics, Inc., priority 2018, dated 2023)
Where two headings read alike, the source gives them in different places.

Tested on: 8XTBD luciferase reporter (YAP) in HEK293T cells
Assay: YAP Reporter Assay
Assay type: cell-based
Settings: Homo sapiens, HEK-293T
[1] = HEK293T cells stably transfected with 8XTBD luciferase reporter and pRLTK, 24-hr incubation, top concentration 3 μM, read-out: Firefly Luciferase IC50

| SMILES | IC50 [1] [µM] | other results |
| --- | --- | --- |
| CCOC(=O)C(O)(C(=O)OCC)c1nnc(-c2ccccc2Nc2ccc(C(F)(F)F)cc2)o1 [Compound 200, diethyl 2-hydroxy-2-(5-(2-((4-(trifluoromethyl)phenyl)amino)phenyl)-1,3,4-oxadiazol-2-yl)malonate] |  | IC50 (24 h, read-out: Firefly Luciferase IC50 (μM)): 0.1 to 1 µM |
| NCCc1nnc(-c2ccccc2Nc2ccc(C(F)(F)F)cc2)o1 [Compound 104, 2-(5-(2-aminoethyl)-1,3,4-oxadiazol-2-yl)-N-(4-(trifluoromethyl)phenyl)aniline] | 1 to 5 |  |
| CNC(=O)C1(c2nnc(-c3ccccc3Nc3ccc(C(F)(F)F)cc3)o2)CC1 [Compound 186, N-methyl-1-(5-(2-((4-(trifluoromethyl)phenyl)amino)phenyl)-1,3,4-oxadiazol-2-yl)cyclopropane-1-carboxamide] | 0.1 to 1 |  |
| CC#CCOc1nnc(-c2ccccc2Nc2ccc(C(F)(F)F)cc2)o1 [Compound 70, 2-(5-(but-2-yn-1-yloxy)-1,3,4-oxadiazol-2-yl)-N-(4-(trifluoromethyl)phenyl)aniline] |  | IC50 ([…], 24-hr incubation, top concentration 3 μM, read-out: Firefly Luciferase IC50): 1 to 5 µM |
| OCC(O)(CO)c1nnc(-c2ccccc2Nc2ccc(C(F)(F)F)cc2)o1 [Compound 201, 2-(5-(2-((4-(trifluoromethyl)phenyl)amino)phenyl)-1,3,4-oxadiazol-2-yl)propane-1,2,3-triol] | < 0.1 |  |
| Cc1ccc(S(=O)(=O)OC2(c3nnc(-c4ccccc4Nc4ccc(C(F)(F)F)cc4)o3)CC2)cc1 [Compound 53, 1-(5-(2-((4-(trifluoromethyl)phenyl)amino)phenyl)-1,3,4-oxadiazol-2-yl)cyclo propyl 4-methylbenzenesulfonate] | 0.1 to 1 |  |
